Drawing on US11040028B2, “Penicinotam derivative, preparation method and use thereof” (OCEAN UNIVERSITY OF CHINA, priority 2017, dated 2021), this text covers IC50 for 16 compounds.

As a reminder, the IC50 is the concentration that gives 50% inhibition.

Common to all, as to type: cell-based
The subject of experiment [1] is human fibrosarcoma cells HT-1080. Nature of the experiment: Anti-fibrosis activity test: inhibition of proliferation of human fibrosarcoma cells HT-1080 (CCK-8). The note with it: Homo sapiens, HT-1080, 48 h, human fibrosarcoma cells HT-1080, CCK-8, 48 hours. In a few lines: (§1)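 Cells were seeded at 2×10^4 cells/mL and allowed to adhere for 24 h at 37° C, 5% CO2, then exposed to graded compound concentrations in triplicate for 48 h. CCK-8 was added for 2 h, A450 was read, and IC50 was derived from inhibition rate = (1−Ai/Ao)×100%.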

Experiment [2] relates to mouse macrophages (RAW264.7). Briefly: Lipopolysaccharide-induced NO secretion in macrophages (Griess). To be noted: Mus musculus, RAW264.7, 24 h, RAW264.7, LPS 1 μg/ml, a/b isomers given as first/second symbol, read-out: IC50 (μM), inhibition of lipopolysaccharide-induced NO secretion in macrophages. In a few lines:
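RAW264.7 cells in DMEM with 10% FBS were treated with test compounds at several concentrations, then stimulated with LPS (1 μg/ml) for 24 hours. Nitrite in the supernatant was measured by Griess reaction at 548 nm, and percent inhibition was calculated against blank-medium controls.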
A general note: The Griess reaction detects nitrite, a stable product of nitric oxide.

Experiment [3] concerns human dermal fibroblasts CCC-ESF-1. Nature of the experiment: Anti-fibrosis activity test: inhibition of proliferation of human dermal fibroblasts CCC-ESF-1 (CCK-8). The note with it: Fibroblast; human dermal fibroblasts CCC-ESF-1, CCK-8, 48 hours. Put shortly: as §1
The test system of experiment [4] is human lung fibroblasts HFL1. Nature of the experiment: Anti-fibrosis activity test: inhibition of proliferation of human lung fibroblasts HFL1 (CCK-8). The note with it: Homo sapiens, HFL1, 48 h, human lung fibroblasts HFL1, CCK-8, 48 hours. In a few lines: as §1
Experiment [5] relates to human embryonic lung fibroblast IMR-90. Briefly: Anti-fibrosis activity test: inhibition of proliferation of human embryonic lung fibroblast IMR-90 (CCK-8). To be noted: human embryonic lung fibroblast IMR-90, CCK-8, 48 hours. In a few lines: as §1
The subject of experiment [6] is cardiac fibroblast RAT-iCell-C002. Nature of the experiment: Anti-fibrosis activity test: inhibition of proliferation of cardiac fibroblast RAT-iCell-C002 (CCK-8). The note with it: Cardiac fibroblast, 48 h, cardiac fibroblast RAT-iCell-C002, CCK-8, 48 hours. In a few lines:
as §1

For experiment [7], the system named is BHK-21 cells. Nature of the experiment: Anti-fibrosis activity test: inhibition of BHK-21 cell proliferation (CCK-8). The note with it: Mesocricetus auratus, BHK-21, 48 h, CCK-8, 48 hours after administration. Put shortly:
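Cells seeded at 2×10^4 cells/mL, allowed to adhere 24 hours, then exposed to graded compound concentrations in triplicate for 48 hours at 37° C, 5% CO2. CCK-8 added for 2 hours, absorbance read at 450 nm; inhibition versus blank control used to derive IC50. Pirfenidone served as positive control.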

Experiment [8] relates to NF-κB. Briefly: Immunological activity test: inhibition of NF-κB activity. To be noted: initial concentration of 30 μM; a/b isomers given as first/second symbol; read-out: IC50 (μM), inhibitory activity against NF-κB. Put shortly:
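Single-point testing at 30 μM preceded IC50 determination.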

Experiment [9] concerns human hepatic stellate cells LX-2. Nature of the experiment: Anti-fibrosis activity test: inhibition of proliferation of human hepatic stellate cells LX-2 (CCK-8). The note with it: Homo sapiens, 48 h, human hepatic stellate cells LX-2, CCK-8, 48 hours. In a few lines: as §1

In the case of `O=C1c2c(n(Cc3ccc(Cl)cc3)c3cc(F)ccc3c2=O)-c2cccn21` [Compound 496a, 4-(4-Chlorobenzyl)-6-fluoro-9H-pyrrolizino[1,2-b]quinoline-9,10(4H)-dione], the IC50 lay within 0.05 to 5 mM in experiment [1]; 10 to 50 µM in experiment [2]; 0.05 to 5 mM in experiment [3]; 0.05 to 5 mM in experiment [4]; 0.05 to 5 mM in experiment [5]; 0.05 to 5 mM in [6]. Also, the IC50 in experiment [7] was 0.05 to 5 mM; in experiment [8], 10 to 50 µM; in [9] it was 0.05 to 5 mM.
Regarding `O=C1c2c(nc3cc(F)ccc3c2OCc2ccc(Cl)cc2)-c2cccn21` [Compound 496b, 9-((4-chlorobenzyl)oxy)-6-fluoro-10H-pyrrolizino[1,2-b]quinolin-10-one], the IC50 in experiment [1] was in the range of 0.05 to 5 mM; in [2] it was 1 to 10 µM; in [3] it was 0.05 to 5 mM; in [4] it was 0.05 to 5 mM; in experiment [5], 0.05 to 5 mM; in experiment [6], 0.05 to 5 mM. Further, the IC50 was 0.05 to 5 mM in experiment [7], 10 to 50 µM in experiment [8] and 0.05 to 5 mM in experiment [9].
With `N#Cc1ccc2c(=O)c3c([nH]c2c1)-c1cccn1C3=O` [Compound 512a, 9,10-Dioxo-4,10-dihydro-9H-pyrrolizino[1,2-b]quinoline-6-carbonitrile], the 50% inhibitory concentration (IC50) in experiment [1] was in the range of 0.05 to 5 mM; in experiment [2] it was 1 to 10 µM; in experiment [3], 0.05 to 5 mM; in experiment [4], 0.05 to 5 mM; in experiment [5], 0.05 to 5 mM; in experiment [6] it was 0.05 to 5 mM. Moreover, the results for the IC50 in [7], in experiment [8] and in [9] were 0.05 to 5 mM, 1 to 10 µM and less than 0.05 mM, respectively.
As to `N#Cc1ccc2c(O)c3c(nc2c1)-c1cccn1C3=O` [Compound 512b, 9-hydroxy-10-oxo-10H-pyrrolizino[1,2-b]quinoline-6-carbonitrile], the IC50 in experiment [1] was in the range of 0.05 to 5 mM; in experiment [2] it was 1 to 10 µM; in experiment [3], 0.05 to 5 mM; in experiment [4] it was 0.05 to 5 mM; in experiment [5], 0.05 to 5 mM; in [6], 0.05 to 5 mM. For the same compound, the results for the IC50 in experiment [7], in [8] and in experiment [9] were 0.05 to 5 mM, 10 to 50 µM and less than 0.05 mM, respectively.
Turning to `O=C1c2c([nH]c3cc(O)ccc3c2=O)-c2cccn21` [Compound 524a, 6-Hydroxy-9H-pyrrolizino[1,2-b]quinoline-9,10(4H)-dione], the IC50 fell in the range of 0.05 to 5 mM in [1]; 0.1 to 1 µM in experiment [2]; 0.05 to 5 mM in experiment [3]; 0.05 to 5 mM in experiment [4]; 0.05 to 5 mM in experiment [5]; 0.05 to 5 mM in experiment [6]. For the same compound, the IC50 in experiment [7] was 0.05 to 5 mM; in [8] it was 0.1 to 1 µM; in experiment [9], 0.05 to 5 mM.
For the compound `O=C1c2c(nc3cc(O)ccc3c2O)-c2cccn21` [Compound 524b, 6,9-dihydroxy-10H-pyrrolizino[1,2-b]quinolin-10-one], the IC50 was in the range of 0.05 to 5 mM in experiment [1]; 1 to 10 µM in experiment [2]; 0.05 to 5 mM in [3]; 0.05 to 5 mM in [4]; 0.05 to 5 mM in experiment [5]; 0.05 to 5 mM in experiment [6]. In addition, the figures for the IC50 in [7], in [8] and in [9] were 0.05 to 5 mM, 10 to 50 µM and 0.05 to 5 mM, respectively.
In the case of `O=C1c2c([nH]c3cc(C(F)(F)F)ccc3c2=O)-c2cccn21` [Compound 536a, 6-(Trifluoromethyl)-9H-pyrrolizino[1,2-b]quinoline-9,10(4H)-dione], the IC50 in experiment [1] lay within 0.05 to 5 mM; in experiment [2], 1 to 10 µM; in experiment [3], 0.05 to 5 mM; in experiment [4], 0.05 to 5 mM; in experiment [5], 0.05 to 5 mM; in experiment [6] it was 0.05 to 5 mM. Moreover, the concentration for half-maximal inhibition (IC50) fell in the range of 0.05 to 5 mM in [7], 1 to 10 µM in experiment [8] and 0.05 to 5 mM in experiment [9].
For `O=C1c2c(nc3cc(C(F)(F)F)ccc3c2O)-c2cccn21` [Compound 536b, 9-hydroxy-6-(trifluoromethyl)-10H-pyrrolizino[1,2-b]quinolin-10-one], the IC50 was 0.05 to 5 mM in experiment [1]; 1 to 10 µM in experiment [2]; 0.05 to 5 mM in experiment [3]; 0.05 to 5 mM in [4]; 0.05 to 5 mM in experiment [5]; 0.05 to 5 mM in experiment [6]. For the same compound, the IC50 lay within 0.05 to 5 mM in experiment [7], 1 to 10 µM in experiment [8] and 0.05 to 5 mM in [9].
For `O=C1c2c([nH]c3cc(OC(F)(F)F)ccc3c2=O)-c2cccn21` [Compound 548a, 6-(Trifluoromethoxy)-9H-pyrrolizino[1,2-b]quinoline-9,10(4H)-dione], the IC50 lay in the range of 0.05 to 5 mM in [1]; 10 to 50 µM in [2]; 0.05 to 5 mM in [3]; 0.05 to 5 mM in [4]; 0.05 to 5 mM in experiment [5]; 0.05 to 5 mM in [6]. Moreover, the figures for the concentration for half-maximal inhibition (IC50) in experiment [7], in experiment [8] and in experiment [9] were 0.05 to 5 mM, 0.1 to 1 µM and less than 0.05 mM, respectively.
`O=C1c2c(nc3cc(OC(F)(F)F)ccc3c2O)-c2cccn21` [Compound 548b, 9-hydroxy-6-trifluoromethoxy-10H-pyrrolizino[1,2-b]quinolin-10-one]: the IC50 fell in the range of 0.05 to 5 mM in experiment [1]; 1 to 10 µM in experiment [2]; 0.05 to 5 mM in [3]; 0.05 to 5 mM in [4]; 0.05 to 5 mM in [5]; 0.05 to 5 mM in [6]. Also, the IC50 in experiment [7] was in the range of 0.05 to 5 mM; in [8], 1 to 10 µM; in [9] it was 0.05 to 5 mM.
Regarding `COc1ccc2c(=O)c3c([nH]c2c1)-c1cccn1C3=O` [Compound 560a, 6-Methoxy-9H-pyrrolizino[1,2-b]quinoline-9,10(4H)-dione], the IC50 in [1] was in the range of 0.05 to 5 mM; in experiment [2], 10 to 50 µM; in experiment [3], 0.05 to 5 mM; in experiment [4], 0.05 to 5 mM; in experiment [5], 0.05 to 5 mM; in experiment [6], 0.05 to 5 mM. Further, the 50% inhibitory concentration (IC50) in experiment [7] fell in the range of 0.05 to 5 mM; in experiment [8], 1 to 10 µM; in [9], 0.05 to 5 mM.
Consider `COc1ccc2c(O)c3c(nc2c1)-c1cccn1C3=O` [Compound 560b, 9-hydroxy-6-methoxy-10H-pyrrolizino[1,2-b]quinolin-10-one], for which the concentration for half-maximal inhibition (IC50) was 0.05 to 5 mM in experiment [1]; 1 to 10 µM in experiment [2]; 0.05 to 5 mM in experiment [3]; 0.05 to 5 mM in [4]; 0.05 to 5 mM in experiment [5]; 0.05 to 5 mM in [6]. Besides, the half-maximal inhibitory concentration (IC50) fell in the range of 0.05 to 5 mM in experiment [7], 1 to 10 µM in [8] and 0.05 to 5 mM in experiment [9].
With `O=C1c2c(n(Cc3ccc(F)cc3Cl)c3ccccc3c2=O)-c2cccn21` [Compound 572a, 4-(2-Chloro-4-fluorobenzyl)-9H-pyrrolizino[1,2-b]quinoline-9,10(4H)-dione], the half-maximal inhibitory concentration (IC50) in [1] was in the range of 0.05 to 5 mM; in [2], 0.1 to 1 µM; in [3], 0.05 to 5 mM; in [4], 0.05 to 5 mM; in [5] it was 0.05 to 5 mM; in [6], 0.05 to 5 mM. Also, the half-maximal inhibitory concentration (IC50) lay in the range of 0.05 to 5 mM in experiment [7], 0.001 to 0.1 µM in [8] and 0.05 to 5 mM in experiment [9].
With `O=C1c2c(nc3ccccc3c2OCc2ccc(F)cc2Cl)-c2cccn21` [Compound 572b, 9-((2-chloro-4-fluorobenzyl)oxy)-10H-pyrrolizino[1,2-b]quinolin-10-one], the IC50 in experiment [1] was in the range of 0.05 to 5 mM; in experiment [2] it was 1 to 10 µM; in [3], 0.05 to 5 mM; in experiment [4], 0.05 to 5 mM; in experiment [5], 0.05 to 5 mM; in experiment [6], 0.05 to 5 mM. Besides, the IC50 in [7] was 0.05 to 5 mM; in experiment [8], 1 to 10 µM; in experiment [9], 0.05 to 5 mM.
For the compound `O=C1c2c(n(Cc3cc(F)ccc3F)c3ccccc3c2=O)-c2cccn21` [Compound 573a, 4-(2,5-Difluorobenzyl)-9H-pyrrolizino[1,2-b]quinoline-9,10(4H)-dione], the IC50 was 0.05 to 5 mM in experiment [1]; 1 to 10 µM in [2]; 0.05 to 5 mM in experiment [3]; 0.05 to 5 mM in experiment [4]; less than 0.05 mM in experiment [5]; 0.05 to 5 mM in experiment [6]. For the same compound, the IC50 in [7] is 0.05 to 5 mM; in [8], 1 to 10 µM; in experiment [9] it was 0.05 to 5 mM.
`O=C1c2c(nc3ccccc3c2OCc2cc(F)ccc2F)-c2cccn21` [Compound 573b, 9-((2,5-difluorobenzyl)oxy)-10H-pyrrolizino[1,2-b]quinolin-10-one]: the IC50 in experiment [1] was 0.05 to 5 mM; in experiment [2] it was 0.1 to 1 µM; in experiment [3], 0.05 to 5 mM; in experiment [4], 0.05 to 5 mM; in experiment [5], 0.05 to 5 mM; in [6], less than 0.05 mM. Besides, the figures for the IC50 in [7], in experiment [8] and in [9] were 0.05 to 5 mM, 1 to 10 µM and 0.05 to 5 mM, respectively.
